Experiments:
HL60 = experiment: In vitro cytotoxicity, IC50 by flow cytometry (Guava ViaCount); assay type: cell-based, human
Experimental: (§1) Human cancer cell line HeLa, HL60, A2780 was obtained from the HPA Culture Collections (Salisbury, UK). Cells (Jurkat, K562, U937, Hek293, Fibroblasts) were purchased from Russian Cell Culture Collection (Institute of Cytology of the Russian Academy of Sciences, […], Russia) and cultured according to standard protocols and sterile technique. […] Cells were maintained in RPMI 1640 (Jurkat, K562, U937, HL60) (Gibco, Billings, MT, USA) supplemented with […], 10% FBS (Sigma) and 100 units/mL penicillin–streptomycin (Sigma). All types of cells were grown in an atmosphere of 5% CO2 at 37 °C. The cells were subcultured at 2–3 days intervals. Cells were then seeded in 24-well plates at 5 × 10^4 cells per well and incubated overnight. Jurkat, K562, U937, HL60 cells were subcultured at 2-day intervals with a seeding density of 1 × 10^5 cells per 24-well plates in RPMI with 10% FBS.
(§2) The antitumor activity of the synthesized ionic compounds was initially assessed in vitro on Jurkat, K562, U937, HL60, HEK293, A2780 cell lines, including the determination of IC50 by flow cytometry involving Guava ViaCount (Millipore) reagent kits.

A2780 = experiment: as above; assay type: cell-based, human
Experimental: as §1, §2

U937 = experiment: as above; assay type: cell-based
Experimental: as §1, §2

HEK293 = experiment: as above; assay type: cell-based; details: conditionally normal
Experimental: as §1, §2

K562 = experiment: as above; assay type: cell-based
Experimental: as §1, §2

Jurkat = experiment: as above; assay type: cell-based; details: Jurkat cells
Experimental: as §1, §2

Jurkat cells = experiment: Apoptosis/necrosis induction (Annexin V Alexa Fluor488, 7AAD staining); assay type: cell-based; details: compound at IC50 concentration, incubation 2 h
Description: Multiparametric evaluation of marker molecules, along with the detection of damage to the mitochondrial membrane, makes it possible to clearly determine the type of cell death. The method of cell staining with three different dyes (Annexin V Alexa Fluor488, 7AAD and MitoSense Red) provides simultaneous specification of various aspects of the state of the cell membrane, the state of DNA and the viability of mitochondria; together, it is a reliable sign of intrinsic and mitochondrial apoptosis pathway. Normal cells with intact mitochondrial membranes have high MitoSense Red fluorescence, while cells with decoupled oxidation and phosphorylation have much lower fluorescence. […]
Figure 1 The ratio of the level of mito-damage and the level of apoptosis in Jurkat cells of ionic compounds based on ursolic, oleanolic and betulinic acids.

[1] = system: mitochondria of Jurkat tumor cells; experiment: Mitochondrial damage (MitoSense Red staining); assay type: cell-based; details: compound at IC50 concentration, incubation 2 h
[2] = Homo sapiens, HL-60, HL60 cells
[3] = Homo sapiens, A2780, A2780 cells
[4] = Homo sapiens, U-937, U937 cells
[5] = Homo sapiens, HEK293, HEK293 cells

SMILES	IC50 (HL60; [2])	IC50 (A2780; [3])	IC50 (U937; [4])	IC50 (HEK293; [5])	IC50 (K562; Homo sapiens, K562, K562 cells)	IC50 (Jurkat; Homo sapiens, Jurkat)	Apoptosis (%) Early (Jurkat cells)	Apoptosis (%) Late (Jurkat cells)	Apoptosis (%) Necrosis (Jurkat cells)	Mito-Damage (%) [1]	percentage of cells in the apoptotic state (Jurkat cells)	IC50 (HL60; HL60 cells)	IC50 (A2780; A2780 cells)	IC50 (U937; U937 cells)	IC50 (HEK293; HEK293 cells)	IC50 (K562; K562 cells)	IC50 (Jurkat)
C[C@@H]1CC[C@]2(C(=O)OCCCCCCn3cc[n+](C)c3)CC[C@]3(C)C(=CCC4[C@@]5(C)CC[C@H](O)C(C)(C)C5CC[C@]43C)C2[C@H]1C (stereo partly drawn) [10c]	0.002 ± 0.001 µM	0.011 ± 0.001 µM	0.006 ± 0.001 µM	0.024 ± 0.002 µM	0.007 ± 0.001 µM	0.003 ± 0.001 µM	6.61%	4.08%	0.61%	8.89%	–	–	–	–	–	–	–
C=C(C)[C@@H]1CC[C@]2(C(=O)OCCn3cc[n+](C)c3)CC[C@]3(C)C(CCC4[C@@]5(C)CC[C@H](O)C(C)(C)C5CC[C@]43C)C12 (stereo partly drawn) [11a, 1-(2-{[(3β)-3-Hydroxylup-20(29)-en-28-oyl]oxy}ethyl)-3-methylimidazolium bromide]	0.022 ± 0.002 µM	0.132 ± 0.012 µM	0.069 ± 0.003 µM	0.237 ± 0.021 µM	0.076 ± 0.004 µM	0.025 ± 0.001 µM	6.58%	0.74%	0.56%	5.26%	–	–	–	–	–	–	–
C=C(C)[C@@H]1CC[C@]2(C(=O)OCCCCCCn3cc[n+](C)c3)CC[C@]3(C)C(CCC4[C@@]5(C)CC[C@H](O)C(C)(C)C5CC[C@]43C)C12 (stereo partly drawn) [11c]	0.006 ± 0.001 µM	0.036 ± 0.003 µM	0.019 ± 0.001 µM	0.054 ± 0.005 µM	0.021 ± 0.001 µM	0.039 ± 0.004 µM	15.59%	1.82%	4.37%	25.72%	–	–	–	–	–	–	–
CC1(C)CC[C@]2(C(=O)OCCCCCC[N+]3(C)CCCCC3)CC[C@]3(C)C(=CCC4[C@@]5(C)CC[C@H](O)C(C)(C)C5CC[C@]43C)C2C1 (stereo partly drawn) [12b, 1-(6-{[(3β)-3-Hydroxyolean-12-en-28-oyl]oxy}hexyl)-1-methylpiperidinium bromide]	0.024 ± 0.002 µM	0.034 ± 0.003 µM	0.019 ± 0.001 µM	0.076 ± 0.007 µM	0.021 ± 0.001 µM	0.009 ± 0.001 µM	3.21%	18.13%	1.9%	23.49%	–	–	–	–	–	–	–
CC1(C)CC[C@]2(C(=O)OCCCCCC[N+]3(C)CCCC3)CC[C@]3(C)C(=CCC4[C@@]5(C)CC[C@H](O)C(C)(C)C5CC[C@]43C)C2C1 (stereo partly drawn) [12c, 1-(6-{[(3β)-3-Hydroxyolean-12-en-28-oyl]oxy}hexyl)-1-methylpyrrolidinium bromide]	0.027 ± 0.002 µM	0.039 ± 0.004 µM	0.021 ± 0.001 µM	0.081 ± 0.008 µM	0.024 ± 0.001 µM	0.011 ± 0.001 µM	0.7%	33.66%	0.99%	74.26%	35%	–	–	–	–	–	–
CC1(C)CC[C@]2(C(=O)OCCCCCC[N+]3(C)CCOCC3)CC[C@]3(C)C(=CCC4[C@@]5(C)CC[C@H](O)C(C)(C)C5CC[C@]43C)C2C1 (stereo partly drawn) [12d, 4-(6-{[(3β)-3-Hydroxyolean-12-en-28-oyl]oxy}hexyl)-4-methylmorpholinium bromide]	0.017 ± 0.001 µM	0.041 ± 0.004 µM	0.059 ± 0.003 µM	0.086 ± 0.008 µM	0.069 ± 0.003 µM	0.022 ± 0.002 µM	0.0%	36.14%	22.63%	62.11%	–	–	–	–	–	–	–
CC[N+](CC)(CC)CCCCCCOC(=O)[C@]12CCC(C)(C)CC1C1=CCC3[C@@]4(C)CC[C@H](O)C(C)(C)C4CC[C@@]3(C)[C@]1(C)CC2 (stereo partly drawn) [12e, N,N,N-Triethyl-N-(6-{[(3β)-3-hydroxyolean-12-en-28-oyl]oxy}hexyl)-aminium bromide]	0.003 ± 0.001 µM	0.016 ± 0.002 µM	0.01 ± 0.001 µM	0.034 ± 0.003 µM	0.013 ± 0.001 µM	0.007 ± 0.001 µM	0.76%	76.0%	7.19%	97.3%	–	–	–	–	–	–	–
CC1(C)CC[C@]2(C(=O)OCCCCCC[N+](C)(C)CCO)CC[C@]3(C)C(=CCC4[C@@]5(C)CC[C@H](O)C(C)(C)C5CC[C@]43C)C2C1 (stereo partly drawn) [12f, N-(2-Hydroxyethyl)-N-(6-{[(3β)-3-hydroxyolean-12-en-28-oyl]oxy}hexyl)-N,N-dimethylaminium bromide]	0.011 ± 0.001 µM	0.015 ± 0.001 µM	0.042 ± 0.002 µM	0.026 ± 0.002 µM	0.049 ± 0.002 µM	0.017 ± 0.001 µM	0.0%	30.87%	54.23%	86.98%	85.10%	–	–	–	–	–	–
Cn1cc[n+](CCCCCCOC(=O)C23CCC(C)(C)CC2C2=CCC4C5(C)CCC(O)C(C)(C)C5CCC4(C)C2(C)CC3)c1.[F][Sb-]([F])([F])([F])([F])[F] (stereo not drawn) [13b, 1-(6-{[(3β)-3-Hydroxyolean-12-en-28-oyl]oxy}hexyl)-3-methylimidazolium Hexafluoroantimonate]	–	–	–	–	–	–	2.35%	17.49%	4.68%	35.72%	–	0.003 ± 0.001 µM	0.021 ± 0.002 µM	0.01 ± 0.001 µM	0.039 ± 0.003 µM	0.012 ± 0.001 µM	0.009 ± 0.001 µM
Cn1cc[n+](CCCCCCOC(=O)[C@]23CCC(C)(C)C[C@H]2C2=CC[C@@H]4[C@@]5(C)CC[C@H](O)C(C)(C)[C@@H]5CC[C@@]4(C)[C@]2(C)CC3)c1.F[P-](F)(F)(F)(F)F [13c, 1-(6-{[(3β)-3-Hydroxyolean-12-en-28-oyl]oxy}hexyl)-3-methylimidazolium Hexafluorophosphate]	–	–	–	–	–	–	3.62%	5.20%	1.78%	8.32%	–	0.003 ± 0.001 µM	0.014 ± 0.001 µM	0.005 ± 0.001 µM	0.032 ± 0.003 µM	0.007 ± 0.001 µM	0.008 ± 0.001 µM
